Assay results as given in patent US9278981B2, “Compounds and compositions for inhibiting the activity of ABL1, ABL2 and BCR-ABL1” (Novartis AG, priority 2012, dated 2016).
pIC50: −log10 of the molar value.

Assays:
ABL1 (64-515) [1] = target: T1, ABL1 (64-515) (Homo sapiens (Human), UniProt P00519); experiment: Radio ABL1 (64-515) assay (radiometric filter-binding); assay type: biochemical
ABL1 (64-515) [2] = target: T1, ABL1 (64-515); experiment: Caliper ABL1 (64-515) assay (microfluidic mobility shift); assay type: biochemical

T1 sequence (P00519 64-515): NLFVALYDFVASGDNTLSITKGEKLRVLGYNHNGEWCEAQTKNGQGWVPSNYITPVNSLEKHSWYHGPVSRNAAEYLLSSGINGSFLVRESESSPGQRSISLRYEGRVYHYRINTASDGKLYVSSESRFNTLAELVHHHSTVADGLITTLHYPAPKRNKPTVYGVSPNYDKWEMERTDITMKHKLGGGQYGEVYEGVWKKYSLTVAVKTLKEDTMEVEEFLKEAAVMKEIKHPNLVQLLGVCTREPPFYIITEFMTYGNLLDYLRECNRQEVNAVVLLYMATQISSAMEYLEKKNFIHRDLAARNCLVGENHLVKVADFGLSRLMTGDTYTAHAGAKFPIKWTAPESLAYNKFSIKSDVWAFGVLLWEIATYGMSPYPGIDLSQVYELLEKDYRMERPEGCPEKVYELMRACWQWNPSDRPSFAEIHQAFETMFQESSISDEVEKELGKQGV

SMILES | pIC50 (ABL1 (64-515) [1]) | pIC50 (ABL1 (64-515) [2])
O=C(Nc1ccc(OC(F)(F)F)cc1)c1cnc(N2C[C@@H](O)[C@@H](O)C2)c(-c2cncc(F)c2)c1 [Example 235, 2-(cis-3,4-Dihydroxypyrrolidin-1-yl)-5′-fluoro-N-(4-(trifluoromethoxy)phenyl)-[3,3′-bipyridine]-5-carboxamide] | 8.70 | 8.74
O=C(Nc1ccc(OC(F)(F)F)cc1)c1cnc(N2CCC3(COC3)C2)c(-c2cncnc2)c1 [Example 116, 5-(Pyrimidin-5-yl)-6-(2-oxa-6-azaspiro[3.4]octan-6-yl)-N-(4-(trifluoromethoxy)phenyl)nicotinamide] | > 8.52 | 8.46
N#Cc1cncc(-c2cc(C(=O)Nc3ccc(SC(F)(F)F)c(F)c3)cnc2N2CC[C@@H](O)C2)c1 [Example 207, (R)-5′-Cyano-N-(3-fluoro-4-((trifluoromethyl)thio)phenyl)-2-(3-hydroxypyrrolidin-1-yl)-[3,3′-bipyridine]-5-carboxamide] | 8.52 | 8.96
O=C(Nc1ccc(OC(F)(F)F)cc1)c1cnc(N2C3COCC2COC3)c(-c2cncnc2)c1 [Example 150, 6-(3,7-Dioxa-9-azabicyclo[3.3.1]nonan-9-yl)-5-(pyrimidin-5-yl)-N-(4-(trifluoromethoxy)phenyl)nicotinamide] | 8.40 | 8.19
NCC1CN(c2ncc(C(=O)Nc3ccc(OC(F)(F)F)cc3)cc2-c2cncc(F)c2)CC1O (stereo not drawn) [Example 237, 2-(3-(Aminomethyl)-4-hydroxypyrrolidin-1-yl)-5′-fluoro-N-(4-(trifluoromethoxy)phenyl)-[3,3′-bipyridine]-5-carboxamide] | 9.22 | 8.92
CN(CCO)c1ncc(C(=O)Nc2ccc(SC(F)(F)F)cc2)cc1-c1cncc(C#N)c1 [Example 194, 5′-Cyano-2-((2-hydroxyethyl)(methyl)amino)-N-(4-((trifluoromethyl)thio)phenyl)-[3,3′-bipyridine]-5-carboxamide] | 8.30 | 8.85
CCN(CCO)c1ncc(C(=O)Nc2ccc(OC(F)(F)Cl)cc2)cc1-c1cncnc1 [Example 182, N-(4-(Chlorodifluoromethoxy)phenyl)-6-(ethyl(2-hydroxyethyl)amino)-5-(pyrimidin-5-yl)nicotinamide] | 8.40 | 9.22
O=C(Nc1ccc(SC(F)(F)F)c(F)c1)c1cnc(N2CC[C@@H](O)C2)c(-c2cncnc2)c1 [Example 205, (R)—N-(3-Fluoro-4-((trifluoromethyl)thio)phenyl)-6-(3-hydroxypyrrolidin-1-yl)-5-(pyrimidin-5-yl)nicotinamide] | > 8.52 | > 9.89
CN(CCO)c1ncc(C(=O)Nc2ccc(OC(F)(F)F)cc2)cc1-c1cncnc1 [Example 151, 6-((2-Hydroxyethyl)(methyl)amino)-5-(pyrimidin-5-yl)-N-(4-(trifluoromethoxy)phenyl)nicotinamide] | > 8.52 | > 9.89
CCN(CCO)c1ncc(C(=O)Nc2ccc(OC(F)(F)Cl)cc2)cc1-c1cncc(C#N)c1 [Example 184, N-(4-(Chlorodifluoromethoxy)phenyl)-5′-cyano-2-(ethyl(2-hydroxyethyl)amino)-[3,3′-bipyridine]-5-carboxamide] | 8.22 | 9.10
O=C(Nc1ccc(OC(F)(F)F)cc1)c1ccc(N2C[C@@H](O)[C@@H](O)C2)c(-c2cncnc2)c1 [Example 10, 4-(cis-3,4-Dihydroxypyrrolidin-1-yl)-3-(pyrimidin-5-yl)-N-(4-(trifluoromethoxy)phenyl)benzamide] | 8.52 | 8.66
Cc1ccc(-c2cc(C(=O)Nc3ccc(OC(F)(F)F)cc3)ccc2N2C[C@H](O)[C@@H](O)C2)cn1 [Example 9, 4-((3S,4S)-3,4-Dihydroxypyrrolidin-1-yl)-3-(6-methylpyridin-3-yl)-N-(4-(trifluoromethoxy)phenyl)benzamide] | 7.77 | 8.74
O=C(Nc1ccc(OC(F)(F)Cl)cc1)c1cnc(N(CCO)CCO)c(-c2cncnc2)c1 [Example 261] | 8.74 | 8.41
N#Cc1cncc(-c2cc(C(=O)Nc3ccc(C(F)(F)C(F)(F)F)cc3)cnc2N2CC[C@@H](O)C2)c1 [Example 210, (R)-5′-Cyano-2-(3-hydroxypyrrolidin-1-yl)-N-(4-(perfluoroethyl)phenyl)-[3,3′-bipyridine]-5-carboxamide] | 8.40 | 9.10
CN(C)[C@H]1CN(c2ncc(C(=O)Nc3ccc(OC(F)(F)F)cc3)cc2-c2cncnc2)C[C@@H]1O [Example 225, 6-((3S,4S)-3-(Dimethylamino)-4-hydroxypyrrolidin-1-yl)-5-(pyrimidin-5-yl)-N-(4-(trifluoromethoxy)phenyl)nicotinamide] | 8.70 | 8.07
O=C(Nc1ccc(OC(F)(F)F)cc1)c1cnc(N2CCOCC2)c(-c2ccc(CO)nc2)c1 [Example 149, 6′-(Hydroxymethyl)-2-morpholino-N-(4-(trifluoromethoxy)phenyl)-[3,3′-bipyridine]-5-carboxamide] | 8.52 | 8.59
N[C@@H]1[C@H]2CN(c3ncc(C(=O)Nc4ccc(OC(F)(F)F)cc4)cc3-c3cncnc3)C[C@@H]12 [Example 227] | 9.05 | 8.80
Nc1ncc(-c2cc(C(=O)Nc3ccc(OC(F)(F)F)cc3)cnc2N2CCCC2)cn1 [Example 68, 5-(2-Aminopyrimidin-5-yl)-6-(pyrrolidin-1-yl)-N-(4-(trifluoromethoxy)phenyl)nicotinamide] | > 8.52 | 9.05
CC(C)(C)Oc1ccc(NC(=O)c2cnc(N3CC[C@@H](O)C3)c(-c3cncnc3)c2)cc1 [Example 219, (R)—N-(4-(tert-Butoxy)phenyl)-6-(3-hydroxypyrrolidin-1-yl)-5-(pyrimidin-5-yl)nicotinamide] | 7.80 | 7.80

Now from value to compound:

pIC50 (ABL1 (64-515) [1]) | pIC50 (ABL1 (64-515) [2]) | SMILES
8.70 | 9.22 | Cc1ncccc1-c1cc(C(=O)Nc2ccc(OC(F)(F)Cl)cc2)cnc1N1CC[C@@H](O)C1 [Example 270]
8.15 | 9.10 | Cc1ccc(-c2cc(C(=O)Nc3ccc(OC(F)(F)F)cc3)cnc2N2CC(CO)C2)cn1 [Example 138, 2-(3-(Hydroxymethyl)azetidin-1-yl)-6′-methyl-N-(4-(trifluoromethoxy)phenyl)-[3,3′-bipyridine]-5-carboxamide]
8.70 | 9.10 | N#Cc1ccncc1-c1cc(C(=O)Nc2ccc(OC(F)(F)Cl)cc2)cnc1N1C[C@H](O)[C@@H](O)C1 [Example 290, N-(4-(Chlorodifluoromethoxy)phenyl)-4′-cyano-2-((3S,4S)-3,4-dihydroxypyrrolidin-1-yl)-[3,3′-bipyridine]-5-carboxamide]
8.52 | > 9.89 | Cc1ncncc1-c1cc(C(=O)Nc2ccc(OC(F)(F)Cl)cc2)cnc1N1CC[C@@H](O)C1 [Example 263]
> 8.52 | 9.10 | Cc1ccc(-c2cc(C(=O)Nc3ccc(OC(F)(F)F)cc3)cnc2N2CC[C@@H](O)C2)cn1 [Example 41, (R)-2-(3-Hydroxypyrrolidin-1-yl)-6′-methyl-N-(4-(trifluoromethoxy)phenyl)-[3,3′-bipyridine]-5-carboxamide]
> 8.52 | 8.64 | CN[C@H]1CCN(c2ncc(C(=O)Nc3ccc(OC(F)(F)F)cc3)cc2-c2cncnc2)C1 [Example 102, (S)-6-(3-(Methylamino)pyrrolidin-1-yl)-5-(pyrimidin-5-yl)-N-(4-(trifluoromethoxy)phenyl)nicotinamide]
8.52 | 8.92 | CC1(O)CN(c2ncc(C(=O)Nc3ccc(OC(F)(F)F)cc3)cc2-c2cccnc2)C1 [Example 130, 2-(3-Hydroxy-3-methylazetidin-1-yl)-N-(4-(trifluoromethoxy)phenyl)-[3,3′-bipyridine]-5-carboxamide]
7.89 | 9.40 | CC(=O)NC[C@H]1CCN(c2ncc(C(=O)Nc3ccc(OC(F)(F)Cl)cc3)cc2-c2cncnc2)C1 [Example 178, (R)-6-(3-(Acetamidomethyl)pyrrolidin-1-yl)-N-(4-(chlorodifluoromethoxy)phenyl)-5-(pyrimidin-5-yl)nicotinamide]
8.40 | > 9.89 | O=C(Nc1ccc(OC(F)(F)F)cc1)c1cnc(N2CC[C@H](CO)C2)c(-c2ccc(Cl)nc2)c1 [Example 88, (S)-6′-Chloro-2-(3-(hydroxymethyl)pyrrolidin-1-yl)-N-(4-(trifluoromethoxy)phenyl)-[3,3′-bipyridine]-5-carboxamide]
> 8.52 | 9.15 | N#Cc1cncc(-c2cc(C(=O)Nc3ccc(OC(F)(F)F)cc3)cnc2N2CC[C@H](CO)C2)c1 [Example 90, (S)-5′-Cyano-2-(3-(hydroxymethyl)pyrrolidin-1-yl)-N-(4-(trifluoromethoxy)phenyl)-[3,3′-bipyridine]-5-carboxamide]
8.40 | 9.22 | O=C(Nc1ccc(OC(F)(F)F)cc1)c1cnc(N2CC[C@@H](O)C2)c(-c2cccc(F)c2)c1 [Example 58, (R)-5-(3-Fluorophenyl)-6-(3-hydroxypyrrolidin-1-yl)-N-(4-(trifluoromethoxy)phenyl)nicotinamide]
8.00 | 8.89 | O=C(Nc1ccc(OC(F)(F)C(F)(F)F)cc1)c1cnc(N2CC[C@@H](O)C2)c(-c2cncc(F)c2)c1 [Example 221, (R)-5′-Fluoro-2-(3-hydroxypyrrolidin-1-yl)-N-(4-(perfluoroethoxy)phenyl)-[3,3′-bipyridine]-5-carboxamide]
> 8.52 | 9.52 | O=C(Nc1ccc(OC(F)(F)F)cc1)c1cnc(N2CC[C@H](CO)C2)c(-c2cnc(Cl)c(F)c2)c1 [Example 89, (S)-6′-Chloro-5′-fluoro-2-(3-(hydroxymethyl)pyrrolidin-1-yl)-N-(4-(trifluoromethoxy)phenyl)-[3,3′-bipyridine]-5-carboxamide]
8.70 | 9.52 | O=C(Nc1ccc(OC(F)(F)Cl)cc1)c1cnc(N2CC[C@@H](O)C2)c(-c2cnccc2F)c1 [Example 280, (R)—N-(4-(Chlorodifluoromethoxy)phenyl)-4′-fluoro-2-(3-hydroxypyrrolidin-1-yl)-[3,3′-bipyridine]-5-carboxamide]
